Measured values published in patent US12448369B2 (Edgewise Therapeutics, Inc., priority 2023, dated 2025).

Tests used:
[1] = biological target: T1, Porcine ventricle myofibrils (ventricular myosin ATPase) (Sus scrofa, UniProt P79293); experiment: Myofibril ATPase assay, porcine ventricle myofibrils; type: biochemical, porcine (Yucatan minipigs); details: porcine ventricle myofibrils
T1 construct: Myofibrils from porcine cardiac muscle was isolated from the left ventricle of Yucatan minipigs; tissue Exemplar Genetics; host or cells: left ventricle of Yucatan minipigs, myofibrils prepared in house
Protocol: (§1) Example 1. Myofibril ATPase Assay
(§2) Myofibril ATPase assays are known in the art to be useful in evaluating small molecules for the treatment of HCM and other cardiac indications. Myosin ATPase activity is assessed by using a coupled reaction system, in which ADP generated by the myosin ATPase function is coupled to the disappearance of NADH through the pyruvate kinase/lactate dehydrogenase (PK-LDH) system. ATPase activity produces ADP, which is used as a substrate for PK to produce pyruvate and regenerate ATP. The pyruvate is then used as a substrate by LDH to oxidize NADH to NAD+. The rate of the reaction is monitored through the time-dependent disappearance of NADH using absorbance at 340 nm, which, when the couple system is in stoichiometric excess, is directly correlated to the ATPase activity of the myosin. Inhibition of ATPase activity by the assayed compounds is indicated by a reduced rate of NADH loss, relative to vehicle-treated controls, over the experimental time window. Activation of ATPase activity by the assayed compounds is indicated by an increased rate of NADH loss, relative to vehicle-treated controls, over the experimental time window. Rabbit Psoas, Porcine atria, and Porcine ventricle are the primary sources of myofibril material.
(§3) Materials: The following stock solutions and reagents were used in the Myofibril ATPase Assay:
(§4) Stock Solutions of pCa buffer. Combine PIPES, CaCl2, and EGTA solutions with water. Adjust pH to 7.0 and bring final volume to 100 mL.
(§5) Buffer A & Buffer B. Prepare buffers A and B according to the table below.
(§6) Myofibril ATPase Assay Procedure: BSA, ATP, NADH, PEP, and DTT solutions were thawed at room temperature, then transferred to ice. Pellet-frozen myofibrils were transferred with approximately twice the required volume into a sufficiently large tube and capped. Myofibrils were thawed by rolling in a water bath for approximately 15 min at room temperature and cooled on ice. Buffers A and B were prepared by adjusting volumes as necessary for required number of wells and stored on ice. 0.5 μL of the compounds to be assayed were added into wells. 25 μL of Buffer A was dispensed into the wells, followed by 25 μL of Buffer B. The wells were measured for absorbance at 340 nm, using a kinetic protocol in which the wells are read every 1.5-2 min for 75 min. Assay data analysis was performed using a python script that filtered the raw data to retain those points falling between a starting and ending time and between a maximum and minimum absorbance, then used the filtered time-domain 340 nm absorbance data in each well to calculate a slope via linear regression analysis in units of mAU/min. Compound slopes were normalized between 100% and 0% activity, where 100% represented the slope of wells containing only compound vehicle, and fit to a 4-parameter logistic model. In addition to the fit parameters, the EC25% values were calculated, relative to the 100% normalized value. Additionally, the Y125 values were calculated for compounds that increased myosin ATP-ase activity. Fit parameters, calculated effective concentrations, filtered raw data, and calculated slopes were exported, in addition to compound-specific graphs of normalized ATPase activity versus concentration in μM. Each value reported in Table 5, Table 6, and Table 7 is either a Y75 value or a Y125 value. Values without a double cross sign, ‡, are Y75 values, which reflect the concentration required to reduce myosin ATP-ase activity by 25% (e.g., Y-axis activity value is 75% of initial value), relative to myosin ATP-ase activity in the absence of exogenous compound.
Cardiac Myofibril Isolation:
Myofibrils from porcine cardiac muscle was isolated from the left ventricle of Yucatan minipigs. Myofibrils were prepared using a method based upon those described in Herrmann et al. (1993) and summarized here. […]

[2] = test system: Rabbit Psoas myofibrils (skeletal myosin ATPase); experiment: Myofibril ATPase assay, rabbit psoas (skeletal) myofibrils; type: biochemical; details: rabbit psoas myofibrils
Protocol: as §1, §2, §3, §4, §5, §6
Skeletal Myofibril Isolation:
(§7) Myofibrils from various animals and tissue types were acquired from a variety of sources: rabbit psoas muscle was purchased from Pel-Freez Biologicals (Rogers, AR) and porcine cardiac muscle was purchased from Exemplar Genetics. All myofibrils were prepared using a method based upon those described in Herrmann et al. (1993) and summarized here. […]

[3] = test system: Porcine atria myofibrils (atrial myosin ATPase); experiment: Myofibril ATPase assay, porcine atria myofibrils; type: biochemical; details: porcine atria myofibrils
Protocol: as §1, §2, §3, §4, §5, §6, §7

[4] = Y75 value (75% activity relative to no compound)

T1 sequence (P79293 whole entry): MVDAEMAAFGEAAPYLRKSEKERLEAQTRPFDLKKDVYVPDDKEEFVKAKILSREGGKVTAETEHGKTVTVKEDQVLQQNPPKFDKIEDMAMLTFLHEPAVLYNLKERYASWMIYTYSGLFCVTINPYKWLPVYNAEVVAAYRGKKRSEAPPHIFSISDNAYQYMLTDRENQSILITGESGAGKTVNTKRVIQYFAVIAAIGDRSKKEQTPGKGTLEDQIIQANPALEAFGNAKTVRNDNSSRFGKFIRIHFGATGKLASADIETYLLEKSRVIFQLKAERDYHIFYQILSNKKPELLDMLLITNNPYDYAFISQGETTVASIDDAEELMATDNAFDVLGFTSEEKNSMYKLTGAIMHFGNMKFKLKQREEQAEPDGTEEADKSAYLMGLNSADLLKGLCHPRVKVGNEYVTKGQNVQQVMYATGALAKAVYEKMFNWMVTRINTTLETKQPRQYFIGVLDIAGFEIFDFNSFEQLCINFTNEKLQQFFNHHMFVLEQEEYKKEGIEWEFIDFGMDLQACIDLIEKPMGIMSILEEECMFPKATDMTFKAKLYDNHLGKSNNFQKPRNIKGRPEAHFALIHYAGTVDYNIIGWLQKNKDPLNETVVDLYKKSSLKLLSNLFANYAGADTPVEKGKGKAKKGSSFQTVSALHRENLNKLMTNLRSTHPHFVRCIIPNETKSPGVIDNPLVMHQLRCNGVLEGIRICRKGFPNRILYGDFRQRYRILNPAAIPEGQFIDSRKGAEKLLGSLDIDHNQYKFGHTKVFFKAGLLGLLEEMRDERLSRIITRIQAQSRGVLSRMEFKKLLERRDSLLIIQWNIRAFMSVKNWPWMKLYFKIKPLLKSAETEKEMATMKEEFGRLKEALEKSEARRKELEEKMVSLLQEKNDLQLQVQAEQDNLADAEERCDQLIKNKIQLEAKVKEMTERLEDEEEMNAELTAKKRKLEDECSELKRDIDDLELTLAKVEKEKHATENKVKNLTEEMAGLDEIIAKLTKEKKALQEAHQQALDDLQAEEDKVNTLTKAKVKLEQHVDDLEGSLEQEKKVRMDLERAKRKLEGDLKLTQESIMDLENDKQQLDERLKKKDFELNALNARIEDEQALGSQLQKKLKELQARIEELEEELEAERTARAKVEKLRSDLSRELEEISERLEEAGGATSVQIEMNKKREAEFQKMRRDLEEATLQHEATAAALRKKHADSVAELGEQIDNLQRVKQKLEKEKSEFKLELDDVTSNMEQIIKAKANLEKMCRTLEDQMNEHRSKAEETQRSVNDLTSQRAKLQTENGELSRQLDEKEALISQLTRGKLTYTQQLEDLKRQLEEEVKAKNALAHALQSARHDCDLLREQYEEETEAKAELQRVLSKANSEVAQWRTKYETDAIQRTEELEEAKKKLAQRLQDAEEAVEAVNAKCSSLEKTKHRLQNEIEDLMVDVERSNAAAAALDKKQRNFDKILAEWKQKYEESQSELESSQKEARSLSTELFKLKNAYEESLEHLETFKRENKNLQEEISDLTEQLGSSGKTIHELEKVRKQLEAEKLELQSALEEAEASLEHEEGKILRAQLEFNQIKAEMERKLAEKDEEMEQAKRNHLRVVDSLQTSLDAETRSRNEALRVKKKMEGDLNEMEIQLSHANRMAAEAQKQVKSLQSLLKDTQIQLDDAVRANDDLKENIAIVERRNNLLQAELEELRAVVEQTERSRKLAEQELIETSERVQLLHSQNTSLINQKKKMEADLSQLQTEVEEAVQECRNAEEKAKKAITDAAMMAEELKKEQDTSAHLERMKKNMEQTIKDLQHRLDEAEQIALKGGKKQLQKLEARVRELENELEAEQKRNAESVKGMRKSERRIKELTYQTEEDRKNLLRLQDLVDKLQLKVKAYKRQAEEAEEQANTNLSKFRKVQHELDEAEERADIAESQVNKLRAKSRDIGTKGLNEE

Structure (SMILES)	Ventricular EC25 ([1]; Y75 value (no ‡ mark)) [nM]	Skeletal EC25 ([2]; Y75 value (no ‡ mark)) [nM]	Atrial EC25 ([3]; Y75 value (no ‡ mark)) [nM]	Ventricular EC25 ([1]; Y75 value) [nM]	Skeletal EC25 ([2]; Y75 value) [nM]	Atrial EC25 [3, 4] [nM]
CC[C@H](NC(=O)Cc1c(C)c2c(C)c(F)ccc2[nH]c1=O)c1ncc(C#N)cn1 (single isomer, unassigned) [compound 4834]	640	150	490			
Cc1c(CC(=O)N[C@@H](C)c2ccc(F)cc2F)c(=O)[nH]c2ccnc(N3CCCC3)c12 [compound 346]				100000	2370	100000
Cc1c(CC(=O)N[C@@H](C)c2ccc(F)cc2F)c(=O)[nH]c2ccc(F)c(C(F)(F)F)c12 [compound 96]	130	10	70			
Cc1c(CC(=O)N[C@@H](CO)c2ccc(C#N)cc2F)c(=O)[nH]c2ccc(C(F)(F)F)nc12 [compound 219]				7160	140	120
Cc1c(CC(=O)N[C@@H](C)c2ccc(F)cc2F)c(=O)[nH]c2ccc(C#N)nc12 [compound 281]				5520	340	270
Cc1c(CC(=O)N[C@H](C)c2cnc(C#N)nc2)c(=O)[nH]c2cc(F)c(F)cc12 (single isomer, unassigned) [compound 2074]	10130	4030	9010			
C[C@H](NC(=O)Cc1c(C2CC2)c2cc(F)ccc2[nH]c1=O)c1ccc(C#N)cc1F [compound 74]	460	10	690			
C[C@H](NC(=O)[C@H](C)c1cc2c(F)cccc2[nH]c1=O)c1ccc(F)cc1F (single isomer, unassigned) [compound 103]	100000	1640	1130			
Cc1c(C2(C(=O)N[C@@H](C)c3ncc(C#N)cn3)CC2)c(=O)[nH]c2cccc(C#N)c12 (single isomer, unassigned) [compound 2544]	18260	2270	4480			
Cc1nccc2[nH]c(=O)c(CC(=O)N[C@H]3CCc4cc(C#N)cnc43)c(C)c12 (single isomer, unassigned) [compound 234]				100000	20280	100000
Cc1c(CC(=O)N[C@@H](C)c2ncc(F)cc2F)c(=O)[nH]c2ccnc(C#N)c12 (single isomer, unassigned) [compound 305]				570	20	70
Cc1nccc2[nH]c(=O)c(CC(=O)N[C@H](C)c3ccncc3)c(C)c12 (single isomer, unassigned) [compound 333]				100000	100000	100000
C[C@H](NC(=O)Cc1c(C2CC2)c2c(F)c(F)ccc2[nH]c1=O)c1ccc(C#N)cn1 [compound 26]	1400	210	6130			
Cc1nc(C#N)ncc1[C@@H](C)NC(=O)Cc1c(C)c2c(F)c(F)ccc2[nH]c1=O [compound 1131]	890	530	350			
CC[C@@H](NC(=O)Cc1c(C)c2c(C)c(F)ccc2[nH]c1=O)c1ncc(C#N)cn1 (single isomer, unassigned) [compound 4833]	1040	250	520			
Cc1nccc2[nH]c(=O)c(C(F)(F)C(=O)N[C@H](C)c3ncc(C#N)cc3F)c(C)c12 (single isomer, unassigned) [compound 3513]				62330	5800	4940
Cc1nnccc1[C@@H](C)NC(=O)Cc1c(C)c2cc(F)ccc2[nH]c1=O [compound 1090]	100000	100000	5790			
Cc1c(CC(=O)N[C@@H](C)c2ncc(C#N)cc2F)c(=O)[nH]c2cccc(C#N)c12 [compound 1081]	280	30	120			
Cc1nccc2[nH]c(=O)c(CC(=O)N[C@@H](C)c3cccc(O)c3)c(C)c12 (single isomer, unassigned) [compound 331]				100000	100000	100000
Cc1ccc2[nH]c(=O)c(CC(=O)N[C@H](C)c3ncc(C#N)cc3F)cc2n1 [compound 462]				100000	100000	65720
C[C@H](NC(=O)Cc1cc2cc(C#N)ccc2[nH]c1=O)c1ccc(F)cc1F [compound 121]	100000	3750	100000			
C[C@H](NC(=O)[C@H](C)c1cc2c(F)nccc2[nH]c1=O)c1ccc(F)cc1F (single isomer, unassigned) [compound 368]				43640	430	1660
Cc1c(F)ccc2[nH]c(=O)c(C(F)(F)C(=O)N[C@@H](C)c3ncc(C#N)cc3F)c(C)c12 (single isomer, unassigned) [compound 4812]	180	50	190			
Cc1nccc2[nH]c(=O)c(CC(=O)N[C@@H](C)c3ccc(F)cc3F)c(C(F)(F)F)c12 [compound 430]				11630	250	380
Cc1ncc(C#N)nc1C(C)NC(=O)Cc1c(C)c2c(C)nccc2[nH]c1=O (stereo not drawn) [compound 461]				15980	100000	94450
Cc1c([C@H](C)C(=O)N[C@@H](C)c2ccc(F)cc2F)c(=O)[nH]c2ccnc(OC(F)(F)F)c12 (single isomer, unassigned) [compound 348]				6440	510	340
